Measurements published in PMC10254045, “Elaboration of the Effective Multi-Target Therapeutic Platform for the Treatment of Alzheimer’s Disease Based on Novel Monoterpene-Derived Hydroxamic Acids” (International Journal of Molecular Sciences, 2023).

Legend:
[1] = DPPH radical scavenging activity; conditions: Trolox equivalent; compounds and Trolox 100 µM
Source text: (§1) DPPH is a stable chromogen radical, which is widely used to assess the antioxidant activity of biological objects, in particular when searching for potential therapeutic agents used to maintain the redox balance in the body and treat pathologies associated with the action of free radicals. In turn, the oxygen radical absorbance capacity (ORAC) analysis is based on the removal by potential antioxidants of peroxyl radicals generated by AAPH (2,2’-axobis-2-methyl-propanimidamide, dihydrochloride), preventing the degradation of the fluorescein probe.
The measurement of the antiradical activity of synthesized hydroxamic acids was carried out using the method described in [150]. The studied compounds were introduced into the wells of a 96-well black tablet (the final concentration was 100 microns), after which a freshly prepared solution of 2,2-diphenyl-1-picrylhydrazyl (Sigma Aldrich, St. Louis, Missouri, USA) was added. After the incubation time had elapsed, the DPPH radical-scavenging activity was measured using a multifunctional Cytation™3 tablet analyzer (BioTek Instruments, Inc., Winooski, VT, USA) at λ = 517 nm by the difference in the reduction of the DPPH radical peak between control samples containing an equivalent volume of solvent and samples with the substances under study.

Cell viability, MTT test = format: cell-based; conditions: human, SH-SY5Y neuroblastoma cells, 24-h exposure, read-out: IC50 cytotoxic action
Method: The culture of human neuroblastoma cells (defined as SH-SY5Y) was cultured in DMEM with the addition of embryonic bovine serum (10%), 2 mM glutamine (DiaM, Moscow, Russia) and penicillin-streptomycin (100 U/Ml–100 µg/mL, PanEco, Moscow, Russia) in conditions of 5% CO2 in the air at 37 °C. Upon reaching 80% confluence, cells in the amount of 1 × 10^4 were placed in 96-well transparent plates and incubated under the same conditions for 24 h. After the incubation time, the cells were exposed to a 24-h exposure to various concentrations of hydroxamic acids dissolved in dimethyl sulfoxide (range from 1 to 100 µM). An equivalent volume of solvent was used as a control (final DMSO content = 1%).
Cell survival analysis was performed using MTT test. To do this, 3-(4,5-dimethylthiazol-2-yl)-2,5-diphenyltetrazolium bromide (MTT, 5 mg/mL, DiaM, Moscow, Russia) was introduced into all wells and incubated at 37 °C for 2 h to restore metabolically active cells of the yellow tetrazolium salt MTT to purple formazane crystals. The resulting formazane was then re-suspended in 200 µL DMSO per well. The optical density was recorded using a multifunctional Cytation™3 flatbed analyzer (BioTek Instruments, Inc., Winooski, VT, USA) at λ = 530 nm.

[2] = Oxygen radical absorbance capacity (ORAC); conditions: Trolox equivalent; compounds and Trolox 100 µM, AAPH 12 mM
Source text: as §1
The analysis of the absorption capacity of oxygen radicals was performed as described in [151], with some modifications. Trolox (Sigma Aldrich, St. Louis, MI, USA) was used as a standard antioxidant. The studied compounds were introduced into the holes of a 96-hole black tablet with a transparent bottom with Trolox (25 µL; the final concentration was 100 µM) and fluorescein (150 µL; the final concentration was 80 nM, Sigma Aldrich, St. Louis, MI, USA). The resulting mixture was shaken and incubated for 30 min at 37 °C. After a 30-min incubation period, a solution of 2,2’-azobis (2-amidinopropane) dihydrochloride (AAPH) (25 µL; final concentration of 12 mM, Sigma Aldrich, St. Louis, MI, USA) was quickly introduced into all wells of the tablet. The tablet was immediately placed in a multifunctional tablet analyzer Cytation™ 3 (BioTek Instruments, Inc., Winooski, VT, USA). The fluorescence intensity was recorded for 300 min at λex = 480 nm, λem = 520 nm with an interval of every 5 min. In the same experiment, calibration solutions for the reference antioxidant Trolox were used to confirm the validity of the use of this method (0, 6.25, 12.5, 25, 50 and 100 µM).

HDAC6 = biological target: T1, HDAC6 (Homo sapiens, UniProt Q9UBN7); test: Fluorimetric measurement of HDAC6 activity (FLUOR DE LYS kit); format: biochemical; conditions: for IC50: Table 1, read-out: HDAC6-Inhibitory Effect, IC50; for ability to inhibit the enzymatic activity of HDAC6: in words
T1 construct: purchased Enzo Life Sciences
T1 sequence (Q9UBN7 1-1215): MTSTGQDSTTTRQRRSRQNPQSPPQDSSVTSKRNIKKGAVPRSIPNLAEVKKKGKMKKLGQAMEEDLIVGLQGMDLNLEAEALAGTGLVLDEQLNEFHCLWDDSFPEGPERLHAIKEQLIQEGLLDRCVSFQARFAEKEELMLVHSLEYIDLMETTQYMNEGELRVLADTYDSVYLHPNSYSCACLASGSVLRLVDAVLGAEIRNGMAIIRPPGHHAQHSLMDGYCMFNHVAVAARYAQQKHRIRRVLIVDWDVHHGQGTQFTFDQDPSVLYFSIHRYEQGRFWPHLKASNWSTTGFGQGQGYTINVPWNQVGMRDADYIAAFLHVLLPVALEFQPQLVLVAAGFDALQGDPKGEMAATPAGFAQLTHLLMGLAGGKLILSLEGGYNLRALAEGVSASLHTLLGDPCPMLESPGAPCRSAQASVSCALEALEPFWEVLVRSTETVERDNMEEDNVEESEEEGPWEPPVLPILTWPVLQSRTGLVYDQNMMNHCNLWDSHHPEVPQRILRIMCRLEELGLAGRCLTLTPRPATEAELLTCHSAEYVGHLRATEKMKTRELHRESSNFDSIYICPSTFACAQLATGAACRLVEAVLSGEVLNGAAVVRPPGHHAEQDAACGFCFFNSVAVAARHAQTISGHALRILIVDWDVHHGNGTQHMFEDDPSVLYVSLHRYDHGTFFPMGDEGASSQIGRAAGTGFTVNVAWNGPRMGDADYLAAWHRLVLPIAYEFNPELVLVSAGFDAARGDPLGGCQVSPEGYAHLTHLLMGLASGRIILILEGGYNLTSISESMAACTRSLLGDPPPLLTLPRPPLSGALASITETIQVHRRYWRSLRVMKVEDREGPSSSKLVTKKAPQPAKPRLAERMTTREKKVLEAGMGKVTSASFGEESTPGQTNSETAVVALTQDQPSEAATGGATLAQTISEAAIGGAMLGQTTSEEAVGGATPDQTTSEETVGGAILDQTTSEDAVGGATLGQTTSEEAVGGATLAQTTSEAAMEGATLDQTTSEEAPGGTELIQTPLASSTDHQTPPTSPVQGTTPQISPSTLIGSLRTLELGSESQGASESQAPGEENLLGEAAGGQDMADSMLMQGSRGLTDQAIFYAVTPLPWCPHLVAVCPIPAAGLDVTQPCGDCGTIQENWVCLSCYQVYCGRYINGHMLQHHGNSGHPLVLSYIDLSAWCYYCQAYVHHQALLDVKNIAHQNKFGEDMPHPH

[3] = biological target: T2, β-amyloid peptide 1-42 (Aβ1-42) (Homo sapiens, UniProt P05067); test: Thioflavin T fluorescent analysis of Aβ1-42 aggregation; format: biochemical; conditions: 48 h, compounds 100 µM, Thioflavin T 10 µM, 48 h registration; read-out: prevention of the aggregation of Aβ1-42
T2 construct: the pathological form of β-amyloid peptide 1-42 (Sigma Aldrich); purchased Sigma Aldrich
T2 sequence (P05067 672-713 limits assumed): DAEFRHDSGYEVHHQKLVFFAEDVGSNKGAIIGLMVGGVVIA
Source text: The aggregation process of β-amyloid peptide 1-42 (Aβ1-42), caused by hydrophobic interactions of peptide monomers and, as a consequence, the formation of the most toxic polymorphic structure-oligomeric fragments of Aβ, was detected using the fluorescent dye Thioflavin T (Figure 4a). This method is the most widely used for selective staining and the identification of amyloid aggregates, which is confirmed by a large number of works. Fluorescence analysis using Thioflavin T made it possible to monitor the aggregation process of the pathological form of β-amyloid peptide 1-42 (Sigma Aldrich, St. Louis, MI, USA). The experimental protocol was carried out similarly to that described in [58] with some modifications. The registration of changes in the fluorescence of thioflavin T (10 µM, Sigma Aldrich, St. Louis, MI, USA) was performed on a multifunctional tablet analyzer Cytation™3 (BioTek Instruments, Inc., Winooski, VT, USA) at λex = 450 nm, λem = 480 nm. The fluorescence intensity of the solution without Aβ1-42 was subtracted from the fluorescence values of solutions containing protein, due to the need to subtract the background fluorescence.

SMILES | DPPH value (TE) [1] | IC50 at 24 h (Cell viability, MTT test) | ORAC value (TE) [2] | IC50 (HDAC6) | ability to inhibit the enzymatic activity of HDAC6 (HDAC6) | melting point | inhibition at 100 µM [3]
CC1=CC[C@@H](CC(=O)NO)C1(C)C [(+)-13, (S)-N-Hydroxy-2-(2,2,3-trimethylcyclopent-3-en-1-yl)acetamide] | 0.26 TE | > 100 µM | 0.94 TE | > 100 µM | no significant ability |  | 
CC1(C)[C@@H]2CC=C(C(=O)NO)[C@H]1C2 [(+)-19, (1S,5R)-N-Hydroxy-6,6-dimethylbicyclo [3.1.1]hept-2-ene-2-carboxamide] | 0.50 TE | > 100 µM | 1.02 TE | > 100 µM | no significant ability |  | 
CC1=CC[C@H](CC(=O)NO)C1(C)C [(-)-13, (R)-N-Hydroxy-2-(2,2,3-trimethylcyclopent-3-en-1-yl)acetamide] | 0.39 TE | > 100 µM | 0.93 TE | > 100 µM | no significant ability |  | 
CC1(C)[C@H]2CC=C(C(=O)NO)[C@@H]1C2 [(-)-19, (1R,5S)-N-Hydroxy-6,6-dimethylbicyclo [3.1.1]hept-2-ene-2-carboxamide] | 0.15 TE | > 100 µM | 0.85 TE | > 100 µM | no significant ability |  | 
CC(CCCC(C)(C)O)CC(=O)NO (stereo not shown) [Compound 5, N,7-dihydroxy-3,7-dimethyloctanamide] | 0.17 TE | > 100 µM | 0.88 TE | > 100 µM | no significant ability |  | 
CC(C)CCCC(C)CC(=O)NO (stereo not shown) [Compound 8, N-Hydroxy-3,7-dimethyloctanamide] | 0.36 TE | > 100 µM | 0.83 TE | > 100 µM | no significant ability |  | 
CC(C)=CCCC(C)CC(=O)NO (stereo not shown) [Compound 10, N-Hydroxy-3,7-dimethyloct-6-enamide] | 0.19 TE | > 100 µM | 0.84 TE | > 100 µM | no significant ability |  | 
C=C(C)[C@@H]1CC=C(C(=O)NO)CC1 [Compound 16, (S)-N-Hydroxy-4-(prop-1-en-2-yl)cyclohex-1-enecarboxamide] | 0.23 TE | > 100 µM | 0.87 TE | 87.4 ± 2.33 µM | no significant ability |  | 
C=C(C)[C@@H]1CC=C(CNC(=O)CCCCCCC(=O)NO)CC1 [Compound 30, (S)-N1-Hydroxy-N8-((4-(prop-1-en-2-yl)cyclohex-1-en-1-yl)methyl)octanediamide] | 0.25 TE | > 100 µM | 0.87 TE | 0.56 ± 0.01 µM |  | 113.5 to 116 °C | ≤ 40%
C=C(C)[C@@H]1CC=C(CNC(=O)CCCCCCCC(=O)NO)CC1 [Compound 31, (S)-N1-hydroxy-N9-((4-(prop-1-en-2-yl)cyclohex-1-en-1-yl)methyl)nonanediamide] | 0.30 TE | 89.4 ± 3.92 µM | 0.82 TE | 0.74 ± 0.02 µM |  | 110.8 °C | ≤ 40%
CC(C)c1ccc(CNC(=O)/C=C/c2ccc(C(=O)NO)cc2)cc1 [Compound 35b, (E)-N-hydroxy-4-(3-((4-isopropylbenzyl)amino)-3-oxoprop-1-en-1-yl)benzamide] | 0.50 TE | > 100 µM | 1.00 TE | 8.23 ± 0.4 µM |  | 187.4 to 189.7 °C | 59.9%
CC1(C)[C@H]2CC[C@@H](CNC(=O)/C=C/c3ccc(C(=O)NO)cc3)[C@@H]1C2 [Compound 35c, 4-((E)-3-((((1S,2R,5S)-6,6-dimethylbicyclo[3.1.1]heptan-2-yl)methyl)amino)-3-oxoprop-1-en-1-yl)-N-hydroxybenzamide] | 0.71 TE | 86.7 ± 1.45 µM | 1.02 TE | 6.9 ± 0.43 µM |  | 139.5 to 141.4 °C | ≤ 40%
